Data: PubChem BioAssay AID1963977 (Molecular Pharmacology Branch, DTP, NCI, 2024)

Tested on: 624824-186-R-J3-PDC multicell spheroids, viability
Test: Anticancer human tumor 624824-186-R-J3-PDC patient-derived colon adenocarcinoma cell line growth inhibition [PI3K]
Settings: for IC50: curve of first compound; for viability, T/C: stronger effect = lower value
In short: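 Complex 3D spheroids (cancer cells + endothelial HUVEC + mesenchymal stem cells); drug pairs of targeted agent x inavolisib/alpelisib/duvelisib/copanlisib; half-log series from ~Cmax, max 10 microM if Cmax unknown; endpoint viability.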

[1] = second compound 0.0316 µM, first compound 0.0316 µM
[2] = second compound 0.0316 µM, first compound 0.1 µM
[3] = second compound 0.1 µM, first compound 0.0316 µM
[4] = second compound 0.1 µM, first compound 0.1 µM
[5] = second compound 0.316 µM, first compound 0.0316 µM
[6] = second compound 0.316 µM, first compound 0.1 µM
[7] = second compound 1 µM, first compound 0.0316 µM
[8] = second compound 1 µM, first compound 0.1 µM
[9] = second compound 3.16 µM, first compound 0.0316 µM
[10] = second compound 3.16 µM, first compound 0.1 µM
[11] = second compound 10 µM, first compound 0.0316 µM
[12] = second compound 10 µM, first compound 0.1 µM
[13] = second compound 0.0316 µM, first compound 0.316 µM
[14] = second compound 0.0316 µM, first compound 1 µM
[15] = second compound 0.0316 µM, first compound 3.16 µM
[16] = second compound 0.0316 µM, first compound 10 µM
[17] = second compound 0.1 µM, first compound 0.316 µM
[18] = second compound 0.1 µM, first compound 1 µM
[19] = second compound 0.1 µM, first compound 3.16 µM
[20] = second compound 0.1 µM, first compound 10 µM
[21] = second compound 0.316 µM, first compound 0.316 µM
[22] = second compound 0.316 µM, first compound 1 µM
[23] = second compound 0.316 µM, first compound 3.16 µM
[24] = second compound 0.316 µM, first compound 10 µM
[25] = second compound 1 µM, first compound 0.316 µM
[26] = second compound 1 µM, first compound 1 µM
[27] = second compound 1 µM, first compound 3.16 µM
[28] = second compound 1 µM, first compound 10 µM
[29] = second compound 3.16 µM, first compound 0.316 µM
[30] = second compound 3.16 µM, first compound 1 µM
[31] = second compound 3.16 µM, first compound 3.16 µM
[32] = second compound 3.16 µM, first compound 10 µM
[33] = second compound 10 µM, first compound 0.316 µM
[34] = second compound 10 µM, first compound 1 µM
[35] = second compound 10 µM, first compound 3.16 µM
[36] = second compound 10 µM, first compound 10 µM
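Further: spheroids exposed to agents for seven days before luminescence read.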
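Wherever viability, T/C is given: luminescent signal used as a stand-in for spheroid viability; percent viability relative to DMSO vehicle control wells taken as 100%.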

Cn1ncnc1[C@H]1c2n[nH]c(=O)c3cc(F)cc(c23)N[C@@H]1c1ccc(F)cc1 + Cc1nc(NC(=O)N2CCCC2C(N)=O)sc1-c1ccnc(C(C)(C)C(F)(F)F)c1
IC50 (second compound 0.0316 µM): > 100 nM
IC50 (second compound 0.1 µM): > 100 nM
IC50 (second compound 0.316 µM): > 100 nM
IC50 (second compound 1 µM): > 100 nM
IC50 (second compound 3.16 µM): > 100 nM
IC50 (second compound 10 µM): > 100 nM
viability, T/C (second compound 0.0316 µM, first compound 0.000316 µM): 106%
viability, T/C (second compound 0.0316 µM, first compound 0.001 µM): 106%
viability, T/C (second compound 0.0316 µM, first compound 0.00316 µM): 101%
viability, T/C (second compound 0.0316 µM, first compound 0.01 µM): 108%
viability, T/C [1]: 111%
viability, T/C [2]: 96.7%
viability, T/C (second compound 0.1 µM, first compound 0.000316 µM): 104%
viability, T/C (second compound 0.1 µM, first compound 0.001 µM): 108%
viability, T/C (second compound 0.1 µM, first compound 0.00316 µM): 111%
viability, T/C (second compound 0.1 µM, first compound 0.01 µM): 101%
viability, T/C [3]: 101%
viability, T/C [4]: 102%
viability, T/C (second compound 0.316 µM, first compound 0.000316 µM): 102%
viability, T/C (second compound 0.316 µM, first compound 0.001 µM): 115%
viability, T/C (second compound 0.316 µM, first compound 0.00316 µM): 102%
viability, T/C (second compound 0.316 µM, first compound 0.01 µM): 103%
viability, T/C [5]: 105%
viability, T/C [6]: 98.8%
viability, T/C (second compound 1 µM, first compound 0.000316 µM): 96.6%
viability, T/C (second compound 1 µM, first compound 0.001 µM): 106%
viability, T/C (second compound 1 µM, first compound 0.00316 µM): 110%
viability, T/C (second compound 1 µM, first compound 0.01 µM): 83.9%
viability, T/C [7]: 101%
viability, T/C [8]: 99%
viability, T/C (second compound 3.16 µM, first compound 0.000316 µM): 81%
viability, T/C (second compound 3.16 µM, first compound 0.001 µM): 83%
viability, T/C (second compound 3.16 µM, first compound 0.00316 µM): 90.8%
viability, T/C (second compound 3.16 µM, first compound 0.01 µM): 87%
viability, T/C [9]: 91.8%
viability, T/C [10]: 83.6%
viability, T/C (second compound 10 µM, first compound 0.000316 µM): 70%
viability, T/C (second compound 10 µM, first compound 0.001 µM): 74.3%
viability, T/C (second compound 10 µM, first compound 0.00316 µM): 70.7%
viability, T/C (second compound 10 µM, first compound 0.01 µM): 66.7%
viability, T/C [11]: 67.7%
viability, T/C [12]: 76.9%

C[C@@H](NC(=O)c1ncnc(N)c1Cl)c1ncc(C(=O)Nc2cc(C(F)(F)F)c(Cl)cn2)s1 + CC(Nc1ncnc2nc[nH]c12)c1cc2cccc(Cl)c2c(=O)n1-c1ccccc1
IC50 (second compound 0.0316 µM): > 10000 nM
IC50 (second compound 0.1 µM): > 10000 nM
IC50 (second compound 0.316 µM): > 10000 nM
IC50 (second compound 1 µM): > 10000 nM
IC50 (second compound 3.16 µM): > 10000 nM
IC50 (second compound 10 µM): > 10000 nM
viability, T/C [1]: 115%
viability, T/C [2]: 100%
viability, T/C [13]: 107%
viability, T/C [14]: 100%
viability, T/C [15]: 99.8%
viability, T/C [16]: 94.4%
viability, T/C [3]: 100%
viability, T/C [4]: 101%
viability, T/C [17]: 104%
viability, T/C [18]: 107%
viability, T/C [19]: 101%
viability, T/C [20]: 107%
viability, T/C [5]: 96.8%
viability, T/C [6]: 105%
viability, T/C [21]: 92.5%
viability, T/C [22]: 96.1%
viability, T/C [23]: 98.8%
viability, T/C [24]: 97.6%
viability, T/C [7]: 99.2%
viability, T/C [8]: 94.4%
viability, T/C [25]: 110%
viability, T/C [26]: 92.8%
viability, T/C [27]: 94.8%
viability, T/C [28]: 83%
viability, T/C [9]: 97.1%
viability, T/C [10]: 102%
viability, T/C [29]: 104%
viability, T/C [30]: 94.3%
viability, T/C [31]: 93.8%
viability, T/C [32]: 73.3%
viability, T/C [11]: 100%
viability, T/C [12]: 94.7%
viability, T/C [33]: 96.3%
viability, T/C [34]: 83%
viability, T/C [35]: 82.2%
viability, T/C [36]: 61%

Cn1nccc1Nc1nccc(-c2ccn(C(CO)c3ccc(Cl)c(F)c3)c(=O)c2)n1 (stereo unspecified) + Cc1nc(NC(=O)N2CCCC2C(N)=O)sc1-c1ccnc(C(C)(C)C(F)(F)F)c1
IC50 (second compound 0.0316 µM): 8080 nM
IC50 (second compound 0.1 µM): 5010 nM
IC50 (second compound 0.316 µM): 1570 nM
IC50 (second compound 1 µM): 783 nM
IC50 (second compound 3.16 µM): 223 nM
IC50 (second compound 10 µM): 100 nM
viability, T/C [1]: 119%
viability, T/C [2]: 105%
viability, T/C [13]: 90.7%
viability, T/C [14]: 74.7%
viability, T/C [15]: 55%
viability, T/C [16]: 49.5%
viability, T/C [3]: 109%
viability, T/C [4]: 104%
viability, T/C [17]: 83.6%
viability, T/C [18]: 73%
viability, T/C [19]: 56.3%
viability, T/C [20]: 40.9%
viability, T/C [5]: 106%
viability, T/C [6]: 110%
viability, T/C [21]: 78%
viability, T/C [22]: 58%
viability, T/C [23]: 42%
viability, T/C [24]: 31.8%
viability, T/C [7]: 103%
viability, T/C [8]: 89.5%
viability, T/C [25]: 72.7%
viability, T/C [26]: 43.2%
viability, T/C [27]: 29.6%
viability, T/C [28]: 25.4%
viability, T/C [9]: 84.5%
viability, T/C [10]: 77.7%
viability, T/C [29]: 37.6%
viability, T/C [30]: 21.3%
viability, T/C [31]: 17.8%
viability, T/C [32]: 16.2%
viability, T/C [11]: 62.2%
viability, T/C [12]: 50.4%
viability, T/C [33]: 27.3%
viability, T/C [34]: 14.1%
viability, T/C [35]: 10.9%
viability, T/C [36]: 7.57%
